We go through 25 compounds from patent US10273222B2 (CELGENE QUANTICEL RESEARCH, INC., priority 2013, dated 2019).

The term IC50 denotes the concentration that inhibits the measured activity by half.

Holding throughout (format): biochemical
Test [1] has as its target Jarid1A (Homo sapiens (Human), UniProt P29375). In words: Jarid1A in vitro enzyme inhibition assay (TR-FRET). An excerpt:
The enzymatic assay of Jarid1A activity is based upon Time Resolved-Fluorescence Resonance Energy Transfer (TR-FRET) detection.
For orientation: Time-resolved FRET reads energy transfer from a long-lived donor to a nearby acceptor.

Test [2] deals with Jarid1B (Homo sapiens (Human), UniProt Q9UGL1). Description: Jarid1B in vitro enzyme inhibition assay (TR-FRET).
Jarid1B, sequence (Q9UGL1 2-751): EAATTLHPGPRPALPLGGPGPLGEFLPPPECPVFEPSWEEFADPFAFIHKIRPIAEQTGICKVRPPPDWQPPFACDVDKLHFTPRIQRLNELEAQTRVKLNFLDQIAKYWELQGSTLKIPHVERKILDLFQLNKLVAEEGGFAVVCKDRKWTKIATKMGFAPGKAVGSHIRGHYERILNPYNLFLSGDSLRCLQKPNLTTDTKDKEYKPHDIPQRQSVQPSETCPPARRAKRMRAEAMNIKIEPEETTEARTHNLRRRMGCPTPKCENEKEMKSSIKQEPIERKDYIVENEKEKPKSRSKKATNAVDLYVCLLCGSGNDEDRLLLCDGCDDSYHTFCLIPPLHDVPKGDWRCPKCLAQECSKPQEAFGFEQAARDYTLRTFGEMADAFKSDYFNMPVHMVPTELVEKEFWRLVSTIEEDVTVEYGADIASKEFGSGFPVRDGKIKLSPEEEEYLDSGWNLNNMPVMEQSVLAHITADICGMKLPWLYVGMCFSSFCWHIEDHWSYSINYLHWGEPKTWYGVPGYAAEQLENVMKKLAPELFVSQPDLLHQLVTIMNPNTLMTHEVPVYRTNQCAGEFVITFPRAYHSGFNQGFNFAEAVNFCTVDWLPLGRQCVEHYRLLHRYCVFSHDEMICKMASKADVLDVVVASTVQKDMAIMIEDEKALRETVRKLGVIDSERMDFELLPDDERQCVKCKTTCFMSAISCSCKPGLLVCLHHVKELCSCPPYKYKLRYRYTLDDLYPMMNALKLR
Method: This assay determines the ability of a test compound to inhibit Jarid1A, Jarid1B, JMJD2C, and JMJD2A demethylase activity.
The ability of test compounds to inhibit the activity of Jarid1B was determined in 384-well plate format under the following reaction conditions: 0.8 nM Jarid1B, 300 nM H3K4me3-biotin labeled peptide (Anaspec cat #64357), 2 μM alpha-ketoglutaric acid in assay buffer of 50 mM HEPES, pH7.3, 0.005% Brij35, 0.5 mM TCEP, 0.2 mg/ml BSA, 50 μM sodium L-ascorbate, and 2 μM ammonium iron(II) sulfate. Reaction product was determined quantitatively by TR-FRET after the addition of detection reagent Phycolink Streptavidin-allophycocyanin (Prozyme) and Europium-anti-mono- or di-methylated histone H3 lysine 4 (H3K4me1-2) antibody (PerkinElmer) in the presence of 5 mM EDTA in LANCE detection buffer (PerkinElmer) at a final concentration of 25 nM and 1 nM, respectively.
The assay reaction was initiated by the following: 2 μl of the mixture of 900 nM H3K4me3-biotin labeled peptide and 6 μM alpha-ketoglutaric acid with 2 μl of 11-point serial diluted inhibitor in 3% DMSO was added to each well of the plate, followed by the addition of 2 μl of 2.4 nM Jarid1B to initiate the reaction. The reaction mixture was incubated at room temperature for 30 minutes, and terminated by the addition of 6 μl of 5 mM EDTA in LANCE detection buffer containing 50 nM Phycolink Streptavidin-allophycocyanin and 2 nM Europium-anti-H3K4me1-2 antibody. Plates were read by EnVisionMultilabel Reader in TR-FRET mode (excitation at 320 nm, emission at 615 nm and 665 nm) after 1 hour incubation at room temperature. A ratio was calculated (665/615) for each well and fitted to determine inhibition constant (IC50).
Test [3] addresses JMJD2C (Homo sapiens (Human), UniProt Q9H3R0). In words: JMJD2C in vitro enzyme inhibition assay (TR-FRET).
The target of test [4] is FBXL10 (Homo sapiens (Human), UniProt Q8NHM5). In words: FBXL10 in vitro enzyme inhibition assay (AlphaScreen). The protocol: Reaction product was determined quantitatively by AlphaScreen detection after the addition of detection reagents anti-H3K36me1 antibody, AlphaScreen® Streptavidin-coated Donor beads, and AlphaScreen® Protein A Acceptor beads in 50 mM HEPES, pH7.3, 10 mM NaCl, 0.005% Brij35, 5 mM EDTA, 2 mg/ml BSA to final 10 μg/ml beads.
FBXL10, sequence (Q8NHM5 1-650): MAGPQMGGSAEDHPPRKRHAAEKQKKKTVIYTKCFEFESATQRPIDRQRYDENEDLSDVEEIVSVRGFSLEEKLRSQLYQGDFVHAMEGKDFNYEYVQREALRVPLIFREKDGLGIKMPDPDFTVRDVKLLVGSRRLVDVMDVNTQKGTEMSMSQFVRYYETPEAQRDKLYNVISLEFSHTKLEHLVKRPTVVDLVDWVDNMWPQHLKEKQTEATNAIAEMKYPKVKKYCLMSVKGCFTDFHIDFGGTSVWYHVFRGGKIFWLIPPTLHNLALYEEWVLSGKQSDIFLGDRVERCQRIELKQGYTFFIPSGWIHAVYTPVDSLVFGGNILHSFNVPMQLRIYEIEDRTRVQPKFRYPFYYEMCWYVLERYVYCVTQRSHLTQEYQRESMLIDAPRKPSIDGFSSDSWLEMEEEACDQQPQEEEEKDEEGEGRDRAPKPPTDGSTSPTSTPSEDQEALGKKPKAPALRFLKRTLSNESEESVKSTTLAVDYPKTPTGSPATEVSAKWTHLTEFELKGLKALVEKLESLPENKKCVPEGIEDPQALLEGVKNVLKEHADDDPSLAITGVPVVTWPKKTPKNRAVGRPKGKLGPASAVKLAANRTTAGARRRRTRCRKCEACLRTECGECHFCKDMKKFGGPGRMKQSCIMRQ
Plates were incubated at room temperature for 40 minutes, followed by addition of 3 μl of 50 μg/ml AlphaScreen® Streptavidin-coated Donor beads and AlphaScreen® Protein A Acceptor beads in 50 mM HEPES, pH7.3, 10 mM NaCl, 0.005% Brij35, 5 mM EDTA, 2 mg/ml BSA. Plates were read by EnVisionMultilabel Reader in AlphaScreen mode after a minimum of 2 hour or up to overnight incubation at room temperature. The AlphaScreen signal for each well was used to determine inhibition constant (IC50).
Background: In Alpha technology, singlet oxygen from a donor bead excites a nearby acceptor bead.

JMJD2C, sequence (Q9H3R0 2-372): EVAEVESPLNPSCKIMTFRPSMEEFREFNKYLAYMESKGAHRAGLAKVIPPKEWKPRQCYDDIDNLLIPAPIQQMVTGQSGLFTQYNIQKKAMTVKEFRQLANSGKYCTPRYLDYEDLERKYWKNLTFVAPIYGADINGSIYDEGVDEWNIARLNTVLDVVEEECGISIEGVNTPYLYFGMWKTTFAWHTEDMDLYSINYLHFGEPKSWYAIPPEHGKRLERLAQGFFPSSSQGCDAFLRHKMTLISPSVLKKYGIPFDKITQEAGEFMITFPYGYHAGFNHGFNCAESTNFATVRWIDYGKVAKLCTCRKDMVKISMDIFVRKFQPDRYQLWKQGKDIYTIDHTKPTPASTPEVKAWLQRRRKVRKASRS
Jarid1A, sequence (P29375 1-1090): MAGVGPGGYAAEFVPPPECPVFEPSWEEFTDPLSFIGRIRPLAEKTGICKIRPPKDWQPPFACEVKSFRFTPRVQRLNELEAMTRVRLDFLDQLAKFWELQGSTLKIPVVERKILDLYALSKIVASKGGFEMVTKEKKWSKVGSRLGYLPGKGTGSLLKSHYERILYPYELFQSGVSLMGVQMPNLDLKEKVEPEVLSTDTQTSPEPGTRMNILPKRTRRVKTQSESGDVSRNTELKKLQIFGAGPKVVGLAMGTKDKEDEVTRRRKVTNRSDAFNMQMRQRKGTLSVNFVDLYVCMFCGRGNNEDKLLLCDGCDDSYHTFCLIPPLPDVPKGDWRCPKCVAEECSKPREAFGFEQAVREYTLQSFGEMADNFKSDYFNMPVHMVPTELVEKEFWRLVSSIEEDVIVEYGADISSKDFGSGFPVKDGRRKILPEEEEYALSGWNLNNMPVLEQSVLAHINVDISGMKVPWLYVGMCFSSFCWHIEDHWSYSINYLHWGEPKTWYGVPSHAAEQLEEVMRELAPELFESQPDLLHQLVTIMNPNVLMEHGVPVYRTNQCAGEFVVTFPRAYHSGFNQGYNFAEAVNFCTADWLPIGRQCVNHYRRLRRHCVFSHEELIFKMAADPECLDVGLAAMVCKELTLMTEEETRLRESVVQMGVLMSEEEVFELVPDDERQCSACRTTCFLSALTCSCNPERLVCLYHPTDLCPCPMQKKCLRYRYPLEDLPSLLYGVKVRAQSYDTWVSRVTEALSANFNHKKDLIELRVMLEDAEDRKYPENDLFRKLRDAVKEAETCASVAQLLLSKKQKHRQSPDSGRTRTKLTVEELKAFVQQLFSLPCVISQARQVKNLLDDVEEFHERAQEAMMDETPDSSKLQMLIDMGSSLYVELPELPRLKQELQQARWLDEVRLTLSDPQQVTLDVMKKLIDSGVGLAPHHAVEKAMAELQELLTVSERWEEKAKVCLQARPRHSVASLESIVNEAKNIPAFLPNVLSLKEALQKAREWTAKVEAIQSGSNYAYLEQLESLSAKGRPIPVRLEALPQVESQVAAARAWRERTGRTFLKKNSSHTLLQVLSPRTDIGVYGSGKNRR

Consider `C#Cc1ccc(-c2c(-c3cc(C(=O)O)ccn3)ncn2C)cc1` [Example 21, 2-[5-(4-ethynylphenyl)-1-methyl-1H-imidazol-4-yl]pyridine-4-carboxylic acid], for which the IC50 in test [1] was at most 100 nM; in test [2] it was at most 100 nM; in test [3] it was 100 to 1000 nM; in test [4] it was at most 100 nM.

Regarding `Cn1cnc(-c2cc(C(=O)O)ccn2)c1-c1cccc(F)c1` [Example 24, 2-[5-(3-fluorophenyl)-1-methyl-1H-imidazol-4-yl]pyridine-4-carboxylic acid], the IC50 was at most 100 nM in test [1], at most 100 nM in test [2], 100 to 1000 nM in test [3] and at most 100 nM in test [4].

For `Cn1cnc(-c2cc(C(=O)O)ccn2)c1-c1ccc(Cl)cc1C(F)(F)F` [Example 27, 2-{5-[4-chloro-2-(trifluoromethyl)phenyl]-1-methyl-1H-imidazol-4-yl}pyridine-4-carboxylic acid], the IC50 in test [1] is at most 100 nM; in test [2] it was at most 100 nM; in test [3] it was 1000 to 10000 nM; in test [4], at most 100 nM.

With `Cn1cnc(-c2cc(C(=O)O)ccn2)c1-c1ccc(Cl)c(Cl)c1` [Example 28, 2-[5-(3,4-dichlorophenyl)-1-methyl-1H-imidazol-4-yl]pyridine-4-carboxylic acid], the IC50 in test [1] is at most 100 nM; in test [2] it was at most 100 nM; in test [3], 100 to 1000 nM; in test [4], 100 to 1000 nM.

For `COc1cc(-c2c(-c3cc(C(=O)O)ccn3)ncn2C)ccc1Cl` [Example 30, 2-[5-(4-chloro-3-methoxyphenyl)-1-methyl-1H-imidazol-4-yl]pyridine-4-carboxylic acid], the IC50 in test [1] is at most 100 nM; in test [2] it was at most 100 nM; in test [3], 100 to 1000 nM; in test [4] it was at most 100 nM.

Turning to `Cn1cnc(-c2cc(C(=O)O)ccn2)c1-c1ccc(Cl)c(C(F)(F)F)c1` [Example 31, 2-{5-[4-chloro-3-(trifluoromethyl)phenyl]-1-methyl-1H-imidazol-4-yl}pyridine-4-carboxylic acid], the IC50 in test [1] is at most 100 nM; in test [2], at most 100 nM; in test [3], 100 to 1000 nM; in test [4], 100 to 1000 nM.

Take `CCOc1cc(Cl)ccc1-c1c(-c2cc(C(=O)O)ccn2)ncn1C` [Example 32, 2-[5-(4-chloro-2-ethoxyphenyl)-1-methyl-1H-imidazol-4-yl]pyridine-4-carboxylic acid]: the IC50 in test [1] was at most 100 nM; in test [2], at most 100 nM; in test [3], 1000 to 10000 nM; in test [4] it was 100 to 1000 nM.

As to `Cn1cnc(-c2cc(C(=O)O)ccn2)c1-c1ccc(Cl)cc1Cl` [Example 33, 2-[5-(2,4-dichlorophenyl)-1-methyl-1H-imidazol-4-yl]pyridine-4-carboxylic acid], the IC50 in test [1] is at most 100 nM; in test [2], at most 100 nM; in test [3] it was 100 to 1000 nM; in test [4], at most 100 nM.

On to `COCCCn1cnc(-c2cc(C(=O)O)ccn2)c1-c1ccc(Cl)c(F)c1` [Example 36, 2-[5-(4-chloro-3-fluorophenyl)-1-(3-methoxypropyl)-1H-imidazol-4-yl]pyridine-4-carboxylic acid], for which the IC50 is at most 100 nM in test [1], at most 100 nM in test [2], 1000 to 10000 nM in test [3] and at most 100 nM in test [4].

With `COCCn1cnc(-c2cc(C(=O)O)ccn2)c1-c1ccc(Cl)c(F)c1` [Example 37, 2-[5-(4-chloro-3-fluorophenyl)-1-(2-methoxyethyl)-1H-imidazol-4-yl]pyridine-4-carboxylic acid], the IC50 in test [1] is at most 100 nM; in test [2] it was at most 100 nM; in test [3], 1000 to 10000 nM; in test [4], at most 100 nM.

For the compound `CN(C)CCn1cnc(-c2cc(C(=O)O)ccn2)c1-c1ccc(Cl)c(F)c1` [Example 39, 2-{5-(4-chloro-3-fluorophenyl)-1-[2-(dimethylamino)ethyl]-1H-imidazol-4-yl}pyridine-4-carboxylic acid], the IC50 in test [1], in test [2], in test [3] and in test [4] was at most 100 nM throughout.

In the case of `O=C(O)c1ccnc(-c2cn(CCn3cccn3)cn2)c1` [Example 46, 2-{1-[2-(1H-pyrazol-1-yl)ethyl]-1H-imidazol-4-yl}pyridine-4-carboxylic acid], the IC50 in test [1] lay within 100 to 1000 nM; in test [2], 100 to 1000 nM; in test [3], 1000 to 10000 nM; in test [4], 100 to 1000 nM.

In the case of `O=C(O)c1ccnc(-c2cn(Cc3ccccn3)cn2)c1` [Example 47, 2-[1-(pyridin-2-ylmethyl)-1H-imidazol-4-yl]pyridine-4-carboxylic acid], the IC50 was at most 100 nM in test [1], at most 100 nM in test [2], 100 to 1000 nM in test [3] and at most 100 nM in test [4].

In the case of `CN1CCC(n2cnc(-c3cc(C(=O)O)ccn3)c2)CC1` [Example 49, 2-[1-(1-methylpiperidin-4-yl)-1H-imidazol-4-yl]pyridine-4-carboxylic acid], the IC50 in test [1] is at most 100 nM; in test [2] it was at most 100 nM; in test [3] it was at most 100 nM; in test [4], 100 to 1000 nM.

Turning to `O=C(O)c1ccnc(-c2cn(CC3CCCO3)cn2)c1` (stereo not shown) [Example 51, 2-[1-(tetrahydrofuran-2-ylmethyl)-1H-imidazol-4-yl]pyridine-4-carboxylic acid], the IC50 in test [1] was at most 100 nM; in test [2], at most 100 nM; in test [3], 100 to 1000 nM; in test [4], at most 100 nM.

For the compound `O=C(O)c1ccnc(-c2cn(C3CCNC3)cn2)c1` (stereo not shown) [Example 52, 2-[1-(pyrrolidin-3-yl)-1H-imidazol-4-yl]pyridine-4-carboxylic acid], the half-maximal inhibitory concentration (IC50) in test [1] was at most 100 nM; in test [2], at most 100 nM; in test [3] it was at most 100 nM; in test [4], 100 to 1000 nM.

For the compound `O=C(O)c1ccnc(-c2cn(CC3CCCN3)cn2)c1` (stereo not shown) [Example 53, 2-[1-(pyrrolidin-2-ylmethyl)-1H-imidazol-4-yl]pyridine-4-carboxylic acid], the IC50 was at most 100 nM in test [1], at most 100 nM in test [2], at most 100 nM in test [3] and 100 to 1000 nM in test [4].

Regarding `CN1CCOC(Cn2cnc(-c3cc(C(=O)O)ccn3)c2)C1` (stereo not shown) [Example 54, 2-{1-[(4-methylmorpholin-2-yl)methyl]-1H-imidazol-4-yl}pyridine-4-carboxylic acid], the IC50 in test [1], in test [2], in test [3] and in test [4] was at most 100 nM in each case.

In the case of `CN1CCCC(Cn2cnc(-c3cc(C(=O)O)ccn3)c2)C1` (stereo not shown) [Example 55, 2-{1-[(1-methylpiperidin-3-yl)methyl]-1H-imidazol-4-yl}pyridine-4-carboxylic acid], the IC50 in test [1], in test [2], in test [3] and in test [4] was at most 100 nM each time.

Regarding `CN(CCn1cnc(-c2cc(C(=O)O)ccn2)c1)Cc1ccccc1` [Example 57, 2-(1-{2-[benzyl(methyl)amino]ethyl}-1H-imidazol-4-yl)pyridine-4-carboxylic acid], the concentration for half-maximal inhibition (IC50) in test [1], in test [2], in test [3] and in test [4] was at most 100 nM throughout.

As for `O=C(O)c1ccnc(-c2cn(CCNCC3CC(F)(F)C3)cn2)c1` [Example 73, 2-[1-[2-[(3,3-difluorocyclobutyl)methylamino]ethyl]imidazol-4-yl]pyridine-4-carboxylic acid], the IC50 in test [1], in test [2], in test [3] and in test [4] was at most 100 nM each time.

For `O=C(O)c1ccnc(-c2cn(CCNCc3ccc(F)cc3)cn2)c1` [Example 74, 2-[1-[2-[(4-fluorophenyl)methylamino]ethyl]imidazol-4-yl]pyridine-4-carboxylic acid], the 50% inhibitory concentration (IC50) in test [1], in test [2], in test [3] and in test [4] was at most 100 nM throughout.

`O=C(O)c1ccnc(-c2cn(CCN3Cc4ccccc4C3)cn2)c1` [Example 76, 2-[1-[2-(1,3-dihydroisoindol-2-yl)ethyl]imidazol-4-yl]pyridine-4-carboxylic acid]: the 50% inhibitory concentration (IC50) in test [1], in test [2], in test [3] and in test [4] was at most 100 nM in each case.

In the case of `COc1ccccc1CNCCn1cnc(-c2cc(C(=O)O)ccn2)c1` [Example 77, 2-[1-[2-[(2-methoxyphenyl)methylamino]ethyl]imidazol-4-yl]pyridine-4-carboxylic acid], the IC50 in test [1], in test [2], in test [3] and in test [4] was at most 100 nM throughout.

Regarding `O=C(O)c1ccnc(-c2cn(CCNCc3ccccc3Cl)cn2)c1` [Example 78, 2-[1-[2-[(2-chlorophenyl)methylamino]ethyl]imidazol-4-yl]pyridine-4-carboxylic acid], the IC50 in test [1], in test [2], in test [3] and in test [4] was at most 100 nM each time.
